Experimental data: patent US7501398B2, “Inhibitor of the folding of the HIV-1-protease as antiviral agent” (priority 2005, dated 2009)

Legend:
HIV-1-Protease [1] = biological target: T1, HIV-1-Protease (Human immunodeficiency virus type 1 group M subtype B, UniProt P04585, C555A/C583A/L521I/L551I/Q495K); assay: biochemical; assay type: biochemical; design: Recombinant HIV-1-Protease, expressed in E. Coli; purchased Sigma P7338; host or cells: E. coli; conditions: for Ki: pH 6, 37 °C; for variation in the kinetic parameters with respect to the uninhibited case: control peptides used in the same way as p-S8
Description: Recombinant HIV-1-Protease, expressed in E. Coli (Sigma Cat. no. P7338)contained five mutations to restrict autoproteolysis (Q7K, L33I, […]) and to restrict cysteine thiol oxidation (C67A and C95A). The enzyme was stored at (−70° C. as solution with concentration 25 mg/63 mL in dilute HCl, (pH=1.6)). A chromogenic substrate for HIV-1-PR (Sigma Cat. no. H5535) was obtained as a 1 mg desiccate, diluted with 0.1 ml of DMSO, and stored at −20° C. Protease assisted cleavage between the Nle and the Phe(NO2) residues of substrate entails a blue-shift of the absorption maximum (277 nm to 272 nm). It can be adequately monitored observing the continuous decrease of absorbance at […]. […] Res. Comm 168:274-280.
After that 1 mg of inhibitor peptide was dissolved in […] of DMSO, 4 ml of this solution were then diluted with 16 ml of DMSO and 180 ml of the buffer used for assay.
The buffer was prepared by adding […] NaCl, 1 mM EDTA and 1 mM dithiothreitol to a 20 mM phosphate buffer (pH 6).
The sequences of these control peptides are […] (SEQ ID NO:2) and […] (SEQ ID NO:3) corresponding to fragments 61-70 and 9-19, respectively, of the HIV-1-PR sequence, as well as the […] (SEQ ID NO:4) sequence, which is not related in any way to the protease.
Each measure was performed recording the absorbance at 300 nm (4.13 eV) in a standard UV-vis spectrophotometer (Jasco V-560). […] The sample in the cuvette was exposed to a constant temperature (37±0.05° C.) provided by continuous circulation of water from a water bath to the cell holder via a circulation pump.
After proper thermal stabilization of the substrate dissolved in the buffer (pH 6), the absorbance at 300 nm was recorded. We performed 6 measures spanning a range of substrate concentrations from 50 μM to 250 μM. The reaction was initiated by adding 2.78 μg of enzyme and recording the absorbance decrease at 300 nm for 1200 sec. In all the reported measures the enzyme has thus a nominal concentration of 1.8 μM. Since, to our knowledge, no accurate measure has been published of the dimerization constant of HIV-1-PR at pH=6.0, it is difficult to estimate precisely the active site concentration in our assay.
In all the reported measures the final concentration of inhibitor was [I0]=[…]. The Absorbance decrease at 300 nm was recorded for 1200 sec.

HIV-1-Protease [2] = biological target: T1, HIV-1-Protease; conditions: protease:peptide 1:3; protease alone 79%
Description: Ultraviolet CD spectra were recorded on a Jasco J-810 spectropolarimeter in nitrogen atmosphere at room temperature using 0.1 cm path-length quartz cell. Each spectrum was recorded between 260-200 nm. The data were collected at a rate of 10 nm/min with a wavelength step of 0.2 nm and a time constant of 2 s. The spectra were corrected with respect to the baseline and normalized to the aminoacidic concentration. The protein and the peptide were dissolved in a 20 mM phosphate buffer with 0.8 M NaCl at the same concentration used for the activity assays. The CD spectra were analyzed in terms of contribution of secondary structure elements using the K2D method based on comparison with CD spectra of proteins and peptides with known secondary structure.
The conformational properties of the inhibited protease have been investigated by means of UV circular dichroism experiments.

[3] = enzyme:peptide 1:3, pH 6, 37 °C

Row | Molecule | inhibition mechanism (HIV-1-Protease [1]) | Ki (HIV-1-Protease [1]; dissociation constant KI (inhibitor-free enzyme)) | Ki (HIV-1-Protease [1]; dissociation constant K′I (inhibitor-substrate-enzyme complex)) | apparent dissociation constant K′M of the inhibited reaction (HIV-1-Protease [1]; [3]) | maximum velocity vmax of the inhibited reaction (HIV-1-Protease [1]; [3]) | beta-sheet content of protease plus peptide (CD) (HIV-1-Protease [2]) | variation in the kinetic parameters with respect to the uninhibited case (HIV-1-Protease [1]) | initial velocity v0 of the reaction in presence of peptide (HIV-1-Protease [1]; [S0]=125 mM (FIG. 7(b)))
1 | CC[C@H](C)[C@H](NC(=O)[C@H](CCC(N)=O)NC(=O)[C@@H](NC(=O)[C@H](CC(C)C)NC(=O)[C@H](CC(C)C)NC(=O)[C@H](CC(N)=O)NC(=O)[C@H](CCCNC(=N)N)NC(=O)CNC(=O)[C@@H](NC(=O)[C@@H](NC(=O)[C@H](CC(N)=O)NC(C)=O)[C@@H](C)CC)[C@@H](C)CC)[C@@H](C)O)C(N)=O [p-S8, 83N, 84I, 85I, 86G, 87R, 88N, 89L, 90L, 91T, 92Q, 93I] | non-competitive | 380 ± 810 nM | 180 ± 234 nM | 332 ± 191 mM | 0.026 ± 0.011 mM/s | 45% |  | 
2 | LSQETFDLWKLLPEN (Designed Peptide) [K3, reference compound] |  |  |  |  |  |  | no appreciable variation | 
3 | QILIEICGHK (Fragment 61-70 of the HIV-1-PR sequence) [K1, reference compound] |  |  |  |  |  |  | no appreciable variation | 0.051 µM/s
